In the NIST ThermoML archive (doi:10.1016/j.jct.2014.07.019):
± gives the expanded uncertainty stated by the source.

Experiment: xn = mol fraction of the nth substance listed
Conditions: 100 kPa, Liquid; for speed of sound: Frequency=3 MHz, Sing-around technique in a fixed-path interferometer; for mass density: Vibrating tube method

CCCCOCC(C)O (stereo not given) [1-butoxy-2-propanol] + CCCO
Conditions | mass density, 293.15 K [kg/m3] | mass density, 298.15 K [kg/m3] | speed of sound, 293.15 K [m/s] | speed of sound, 298.15 K [m/s] | speed of sound, 303.15 K [m/s]
x1 = 0.0573 | 812.915 ± 0.16 | 808.937 ± 0.16 | 1230.8 ± 1.3 | 1213.8 ± 1.3 | 1197.1 ± 1.2
x1 = 0.1001 | 818.814 ± 0.16 | 814.76 ± 0.16 | 1235.7 ± 1.3 | 1218.8 ± 1.3 | 1202 ± 1.3
x1 = 0.1558 | 825.901 ± 0.16 | 821.803 ± 0.16 | 1241.5 ± 1.3 | 1224.8 ± 1.3 | 1208 ± 1.3
x1 = 0.2031 | 831.228 ± 0.16 | 827.109 ± 0.16 | 1246.3 ± 1.3 | 1229.3 ± 1.3 | 1212.5 ± 1.3
x1 = 0.2532 | 836.415 ± 0.16 | 832.273 ± 0.16 | 1250.7 ± 1.3 | 1233.6 ± 1.3 | 1216.8 ± 1.3
x1 = 0.3033 | 841.124 ± 0.15 | 836.955 ± 0.16 | 1254.6 ± 1.3 | 1237.5 ± 1.3 | 1220.5 ± 1.3
x1 = 0.4046 | 849.477 ± 0.15 | 845.264 ± 0.15 | 1261.2 ± 1.3 | 1243.9 ± 1.3 | 1226.8 ± 1.3
x1 = 0.5048 | 856.464 ± 0.15 | 852.232 ± 0.15 | 1266.3 ± 1.3 | 1248.9 ± 1.3 | 1231.7 ± 1.3
x1 = 0.6055 | 862.441 ± 0.15 | 858.152 ± 0.15 | 1270.3 ± 1.3 | 1252.9 ± 1.3 | 1235.6 ± 1.3
x1 = 0.7052 | 867.521 ± 0.15 | 863.197 ± 0.15 | 1273.2 ± 1.3 | 1255.7 ± 1.3 | 1238.4 ± 1.3
x1 = 0.807 | 872.037 ± 0.15 | 867.684 ± 0.15 | 1275.7 ± 1.3 | 1258.3 ± 1.3 | 1240.8 ± 1.3
x1 = 0.8546 | 873.936 ± 0.15 | 869.566 ± 0.15 | 1276.8 ± 1.3 | 1259.3 ± 1.3 | 1241.8 ± 1.3
x1 = 0.9041 | 875.766 ± 0.15 | 871.424 ± 0.15 | 1277.7 ± 1.3 | 1260.2 ± 1.3 | 1242.6 ± 1.3
x1 = 0.9537 | 877.527 ± 0.15 | 873.128 ± 0.15 | 1278.5 ± 1.3 | 1260.8 ± 1.3 | 1243.2 ± 1.3
x1 = 1 | 879.031 ± 0.15 | 874.632 ± 0.15 | 1279 ± 1.3 | 1260.9 ± 1.3 | 1242.9 ± 1.3
